In ChEMBL document CHEMBL1150383, “Synthesis and pharmacological evaluation of peptide-mimetic protease-activated receptor-1 antagonists containing novel heterocyclic scaffolds” (Bioorg Med Chem, 2008):
Activity calls are given as the source filed them. No cut-off for these calls is given here.

Experiments:
[1] = molecular target: T1, Proteinase-activated receptor 1 (Homo sapiens) (UniProt P25116); assay: Antagonist activity at PAR1 receptor assessed as inhibition of PAR1AP-induced platelet aggregation in human blood after 10 mins by chronolog dual channel aggregometry; format: functional
T1 sequence (whole entry): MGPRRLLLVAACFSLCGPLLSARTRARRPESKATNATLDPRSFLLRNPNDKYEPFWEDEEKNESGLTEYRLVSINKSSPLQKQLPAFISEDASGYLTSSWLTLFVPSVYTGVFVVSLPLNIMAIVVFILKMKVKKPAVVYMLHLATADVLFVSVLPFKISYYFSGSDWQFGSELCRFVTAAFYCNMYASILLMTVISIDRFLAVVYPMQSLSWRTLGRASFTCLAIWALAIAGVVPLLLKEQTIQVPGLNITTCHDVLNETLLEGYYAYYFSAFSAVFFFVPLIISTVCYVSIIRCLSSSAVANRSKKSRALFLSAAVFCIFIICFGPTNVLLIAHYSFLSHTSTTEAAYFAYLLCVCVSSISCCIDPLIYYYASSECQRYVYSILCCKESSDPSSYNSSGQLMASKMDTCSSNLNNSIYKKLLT

[2] = molecular target: T2, Proteinase-activated receptor 1 (Rattus norvegicus) (UniProt P26824); assay: Antagonist activity at PAR1 receptor assessed as reduction of PAR1AP-induced aortic ring contraction in Wistar rat at 10 to 100 uM after 15 mins; format: functional
T2 sequence (whole entry): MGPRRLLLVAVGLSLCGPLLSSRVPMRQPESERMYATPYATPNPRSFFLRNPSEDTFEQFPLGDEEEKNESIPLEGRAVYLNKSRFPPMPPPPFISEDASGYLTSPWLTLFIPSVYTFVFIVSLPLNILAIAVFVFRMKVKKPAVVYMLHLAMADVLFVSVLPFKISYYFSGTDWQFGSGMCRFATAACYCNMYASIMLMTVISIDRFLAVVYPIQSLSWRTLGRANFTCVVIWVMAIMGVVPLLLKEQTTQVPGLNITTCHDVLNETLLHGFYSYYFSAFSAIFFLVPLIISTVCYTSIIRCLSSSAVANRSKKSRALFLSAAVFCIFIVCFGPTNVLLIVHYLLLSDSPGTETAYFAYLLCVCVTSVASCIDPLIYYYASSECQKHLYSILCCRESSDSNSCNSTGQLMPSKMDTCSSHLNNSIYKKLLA

| Compound | IC75 [1] [µM] | Activity [2] | Activity [1] |
| --- | --- | --- | --- |
| Cc1c(CN2CCCC2)c2ccc(NC(=O)N[C@@H](Cc3ccc4ccccc4c3)C(=O)N[C@@H](CCCNC(=N)N)C(=O)NCc3ccccc3)cc2n1Cc1c(Cl)cccc1Cl | 0.8 | Active |  |
| Cc1c(CN2CCCC2)c2cc(NC(=O)N[C@@H](Cc3ccc(F)c(F)c3)C(=O)N[C@@H](CCCNC(=N)N)C(=O)NCc3ccccc3)ccc2n1Cc1c(Cl)cccc1Cl |  | inactive | inactive |
| COc1ccc(C[C@H](NC(=O)Nc2ccc3c(c2)c(CN2CCCC2)c(C)n3Cc2c(Cl)cccc2Cl)C(=O)N[C@@H](CCCNC(=N)N)C(=O)NCc2ccccc2)cc1 |  | inactive | inactive |
| Cc1c(CN2CCCC2)c2cc(NC(=O)N[C@@H](Cc3ccc4ccccc4c3)C(=O)N[C@@H](CCCNC(=N)N)C(=O)NCc3ccccc3)ccc2n1Cc1c(Cl)cccc1Cl |  | inactive | inactive |
| Cc1c(CN2CCCC2)c2cc(NC(=O)N[C@@H](Cc3cccc4ccccc34)C(=O)N[C@@H](CCCNC(=N)N)C(=O)NCc3ccccc3)ccc2n1Cc1c(Cl)cccc1Cl |  | inactive | inactive |
| COc1ccc(C[C@H](NC(=O)Nc2ccc3c(CN4CCCC4)c(C)n(Cc4c(Cl)cccc4Cl)c3c2)C(=O)N[C@@H](CCCNC(=N)N)C(=O)NCc2ccccc2)cc1 | 0.02 | Active |  |
| COc1ccc(C[C@H](NC(=O)Nc2ccc3c(CN4CCCC4)cn(Cc4c(Cl)cccc4Cl)c3c2)C(=O)N[C@@H](CCCNC(=N)N)C(=O)NCc2ccccc2)cc1 | 0.1 | 94 dyn/mg |  |
| Cc1c(CN2CCCC2)c2ccc(NC(=O)N[C@@H](Cc3ccc(F)c(F)c3)C(=O)N[C@@H](CCCNC(=N)N)C(=O)NCc3ccccc3)cc2n1Cc1c(Cl)cccc1Cl | 0.05 | 31 dyn/mg |  |
